Measured values from patent publication US20230407243A1, “GENETIC PLATFORM TO INVESTIGATE THE FUNCTIONS OF BACTERIAL DRUG EFFLUX PUMPS” (priority 2022, published 2023).
Like-named read-outs stand apart in the source and are kept apart here.

Legend:
Type in all cases: cell-based, Escherichia coli
[1] = system: EKO-35 porinated strain expressing acrB; assay: Checkerboard synergy (FICI), porinated strain
Procedure, shortened: (§1)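 Inocula prepared from resuspended colonies were exposed to PAβN or NMP combined with antibiotics in MHB II checkerboards. Growth was scored by OD600 to define MICs. FICI then classified the interaction, with values under 0.5 counted as synergistic.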

EKO-35-Pore = assay: Checkerboard synergy (FICI), porinated strain
Procedure, shortened: as §1

wild-type K-12-Pore = assay: Checkerboard synergy (FICI), porinated strain
Procedure, shortened: as §1

[2] = system: EKO-35-Pore acrBD408A (functionally inactive AcrB variant); assay: Checkerboard synergy (FICI), porinated strain
Procedure, shortened: as §1

ΔtolC-Pore = system: ΔtolC-Pore
Procedure, shortened: as §1

EKO-35 = system: EKO-35
Procedure, shortened: as §1

wild-type E. coli K-12 = system: wild-type E. coli K-12
Procedure, shortened: as §1

ΔtolC = system: ΔtolC
Procedure, shortened: as §1

EKO-35 acrBD408A = system: EKO-35 acrBD408A
Procedure, shortened: as §1

[3] = EKO-35 acrB Pore, NMP + antibiotic
[4] = EKO-35 acrB Pore, PAβN + antibiotic
[5] = strain EKO-35 acrB Pore, NMP + antibiotic
[6] = porinated efflux-deficient strains
[7] = strain EKO-35 Pore, NMP + antibiotic
[8] = strain K-12 Pore, NMP + antibiotic
[9] = EKO-35 acrBD408A Pore, NMP + antibiotic
[10] = EKO-35 acrBD408A Pore, PAβN + antibiotic
[11] = strain EKO-35 acrBD408A Pore, NMP + antibiotic
[12] = strain ΔtolC Pore, NMP + antibiotic
[13] = EKO-35 acrBD408A, NMP + antibiotic
[14] = EKO-35 acrBD408A, PAβN + antibiotic
[15] = strain EKO-35 acrBD408A, NMP + antibiotic

CC[C@H]1OC(=O)[C@H](C)[C@@H](O[C@H]2C[C@@](C)(OC)[C@@H](O)[C@H](C)O2)[C@H](C)[C@@H](O[C@@H]2O[C@H](C)C[C@H](N(C)C)[C@H]2O)[C@](C)(O)C[C@@H](C)C(=O)[C@H](C)[C@@H](O)[C@]1(C)O [erythromycin]
Effect [1, 3]: Additive | FICI [1, 3]: 0.563 | Effect [1, 4]: Synergistic | FICI [1, 4]: 0.078 | MICb Alone ([1]; EKO-35 acrB Pore, antibiotic alone (PAβN checkerboard)): 32 µg/mL | MICb Combined ([1]; EKO-35 acrB Pore, antibiotic in combination with PAβN): 0.5 µg/mL | Effect [1, 5]: Additive (additive (FICI >0.5-1.0)) | FICI [1, 5]: 0.563 | MICb Alone ([1]; strain EKO-35 acrB Pore, antibiotic alone): 8 µg/mL | MICb Combined ([1]; strain EKO-35 acrB Pore, antibiotic in combination with NMP): 0.5 µg/mL | Effect (EKO-35-Pore; EKO-35 Pore, NMP + antibiotic): Additive | FICI (EKO-35-Pore; EKO-35 Pore, NMP + antibiotic): 0.770 | Effect (EKO-35-Pore; EKO-35 Pore, PAβN + antibiotic): Additive | FICI (EKO-35-Pore; EKO-35 Pore, PAβN + antibiotic): 0.610 | MICb Alone (EKO-35-Pore; EKO-35 Pore, antibiotic alone (PAβN checkerboard)): 0.13 µg/mL | MICb Combined (EKO-35-Pore; EKO-35 Pore, antibiotic in combination with PAβN): 0.063 µg/mL | interaction of NMP in combination with the labelled antibiotic (FICI) (EKO-35-Pore; [6]): no longer synergistic | interaction of PAβN in combination with the labelled antibiotic (FICI) (EKO-35-Pore; [6]): no longer synergistic | Effect (EKO-35-Pore; [7]): Additive (additive (FICI >0.5-1.0)) | FICI (EKO-35-Pore; [7]): 0.770 | MICb Alone (EKO-35-Pore; strain EKO-35 Pore, antibiotic alone): 0.25 µg/mL | MICb Combined (EKO-35-Pore; strain EKO-35 Pore, antibiotic in combination with NMP): 0.13 µg/mL | FICI (wild-type K-12-Pore; K-12 Pore, NMP + antibiotic): 1.000 | Effect (wild-type K-12-Pore; K-12 Pore, PAβN + antibiotic): Synergistic | MICb Alone (wild-type K-12-Pore; K-12 Pore, antibiotic alone (PAβN checkerboard)): 4 µg/mL | MICb Combined (wild-type K-12-Pore; K-12 Pore, antibiotic in combination with PAβN): 0.25 µg/mL | Effect (wild-type K-12-Pore; [8]): — (indifferent (FICI >1.0)) | FICI (wild-type K-12-Pore; [8]): 1.000 | MICb Alone (wild-type K-12-Pore; strain K-12 Pore, antibiotic alone): 16 µg/mL | MICb Combined (wild-type K-12-Pore; strain K-12 Pore, antibiotic in combination with NMP): 8 µg/mL | Effect [2, 9]: Additive | FICI [2, 9]: 0.735 | Effect [2, 10]: Additive | FICI [2, 10]: 0.735 | MICb Alone ([2]; EKO-35 acrBD408A Pore, antibiotic alone (PAβN checkerboard)): 0.13 µg/mL | MICb Combined ([2]; EKO-35 acrBD408A Pore, antibiotic in combination with PAβN): 0.063 µg/mL | Effect [2, 11]: Additive (additive (FICI >0.5-1.0)) | FICI [2, 11]: 0.735 | MICb Alone ([2]; strain EKO-35 acrBD408A Pore, antibiotic alone): 0.13 µg/mL | MICb Combined ([2]; strain EKO-35 acrBD408A Pore, antibiotic in combination with NMP): 0.063 µg/mL | Effect (ΔtolC-Pore; [12]): Synergistic (Synergy (FICI ≤0.5)) | FICI (ΔtolC-Pore; [12]): 0.625 | MICb Alone (ΔtolC-Pore; strain ΔtolC Pore, antibiotic alone): 4 µg/mL | MICb Combined (ΔtolC-Pore; strain ΔtolC Pore, antibiotic in combination with NMP): 0.5 µg/mL | Effect (ΔtolC-Pore; ΔtolC Pore, NMP + antibiotic): Synergistic | FICI (ΔtolC-Pore; ΔtolC Pore, NMP + antibiotic): 0.625 | Effect (ΔtolC-Pore; ΔtolC Pore, PAβN + antibiotic): Synergistic | FICI (ΔtolC-Pore; ΔtolC Pore, PAβN + antibiotic): 0.188 | MICb Alone (ΔtolC-Pore; ΔtolC Pore, antibiotic alone (PAβN checkerboard)): 1 µg/mL | MICb Combined (ΔtolC-Pore; ΔtolC Pore, antibiotic in combination with PAβN): 0.063 µg/mL | Effect (EKO-35; EKO-35, NMP + antibiotic): Synergistic | Effect (EKO-35; EKO-35, PAβN + antibiotic): Synergistic | FICI (EKO-35; EKO-35, PAβN + antibiotic): 0.093 | MICb Alone (EKO-35; EKO-35, antibiotic alone (PAβN checkerboard)): 2 µg/mL | MICb Combined (EKO-35; EKO-35, antibiotic in combination with PAβN): 0.06 µg/mL | interaction of NMP in combination with the labelled antibiotic (FICI) (EKO-35; EKO-35 and EKO-35 acrBD408A): low-level synergy | interaction of PAβN in combination with the labelled antibiotic (FICI) (EKO-35; efflux-deficient strains EKO-35, EKO-35 acrBD408A, ΔtolC): synergized | Effect (EKO-35; strain EKO-35, NMP + antibiotic): Synergistic (Synergy (FICI ≤0.5)) | MICb Alone (EKO-35; strain EKO-35, antibiotic alone): 2 µg/mL | MICb Combined (EKO-35; strain EKO-35, antibiotic in combination with NMP): 0.25 µg/mL | Effect (wild-type E. coli K-12; K-12, NMP + antibiotic): Additive | FICI (wild-type E. coli K-12; K-12, NMP + antibiotic): 0.625 | Effect (wild-type E. coli K-12; K-12, PAβN + antibiotic): Synergistic | FICI (wild-type E. coli K-12; K-12, PAβN + antibiotic): 0.094 | MICb Alone (wild-type E. coli K-12; K-12, antibiotic alone (PAβN checkerboard)): 64 µg/mL | MICb Combined (wild-type E. coli K-12; K-12, antibiotic in combination with PAβN): 2 µg/mL | Effect (wild-type E. coli K-12; strain K-12, NMP + antibiotic): Additive (additive (FICI >0.5-1.0)) | FICI (wild-type E. coli K-12; strain K-12, NMP + antibiotic): 0.625 | MICb Combined (wild-type E. coli K-12; strain K-12, antibiotic in combination with NMP): 16 µg/mL | Effect (ΔtolC; strain ΔtolC, NMP + antibiotic): — (indifferent (FICI >1.0)) | FICI (ΔtolC; strain ΔtolC, NMP + antibiotic): 1.000 | MICb Alone (ΔtolC; strain ΔtolC, antibiotic alone): 4 µg/mL | MICb Combined (ΔtolC; strain ΔtolC, antibiotic in combination with NMP): 2 µg/mL | FICI (ΔtolC; ΔtolC, NMP + antibiotic): 1.000 | Effect (ΔtolC; ΔtolC, PAβN + antibiotic): Synergistic | FICI (ΔtolC; ΔtolC, PAβN + antibiotic): 0.188 | MICb Alone (ΔtolC; ΔtolC, antibiotic alone (PAβN checkerboard)): 4 µg/mL | MICb Combined (ΔtolC; ΔtolC, antibiotic in combination with PAβN): 0.25 µg/mL | Effect (EKO-35 acrBD408A; [13]): Synergistic | FICI (EKO-35 acrBD408A; [13]): 0.500 | Effect (EKO-35 acrBD408A; [14]): Synergistic | FICI (EKO-35 acrBD408A; [14]): 0.190 | MICb Alone (EKO-35 acrBD408A; EKO-35 acrBD408A, antibiotic alone (PAβN checkerboard)): 2 µg/mL | MICb Combined (EKO-35 acrBD408A; EKO-35 acrBD408A, antibiotic in combination with PAβN): 0.13 µg/mL | Effect (EKO-35 acrBD408A; [15]): Synergistic (Synergy (FICI ≤0.5)) | FICI (EKO-35 acrBD408A; [15]): 0.500 | MICb Alone (EKO-35 acrBD408A; strain EKO-35 acrBD408A, antibiotic alone): 2 µg/mL | MICb Combined (EKO-35 acrBD408A; strain EKO-35 acrBD408A, antibiotic in combination with NMP): 0.5 µg/mL
